Common to all, as to assay: NCI anticancer screen, dose series, 48 h
Assay [1] has as its system LOX IMVI.
The test system of assay [2] is HCT-116.
In assay [3] the test system is COLO 205.
In assay [4] the test system is MCF7.
The test system of assay [5] is SW-620.
Assay [6] concerns IGROV-1.
In assay [7] the test system is NCI-H23.
The subject of assay [8] is SR.
In assay [9] the test system is CCRF-CEM.
The test system of assay [10] is KM12.
Assay [11] deals with T47D.
The test system of assay [12] is SNB-19.
The test system of assay [13] is SF-295.
The subject of assay [14] is OVCAR-8.
Assay [15] has as its system ACHN.
Assay [16] relates to TK-10.
The subject of assay [17] is SF-539.
For assay [18], the system named is NCI-H226.
Assay [19] has as its system RXF 393.
Assay [20] relates to K562.

SMILES strings stand for the structures.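 Growth conditions: 96-well plates. Treatment: test compound, 48 hours, 5 concentrations. Analysis: linear interpolation between bracketing concentrations; unreached endpoints set to highest concentration. GI50 marks 50% less growth.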 Activity calls are given as the source filed them. No stated cut-off is given here; in the data, active = GI50 up to about 1.1 µM and inactive = higher. Square brackets hold non-standard residues; d marks the D form. Peptide text beside a SMILES is read from it. pGlu = O=C1CC[C@@H](C(=O)O)N1; Thz = O=C(O)[C@@H]1CSCN1 Some results are limits rather than exact numbers.

With `CC(C)C1(NC(=O)C2CC3c4cccc5[nH]cc(c45)CC3N(C)C2)OC2(O)C3CCCN3C(=O)C(Cc3ccccc3)N2C1=O` (stereo not given), the GI50 was 12.1 µM (inactive) in assay [1]; 16.9 µM (inactive) in assay [2]; 14.2 µM (inactive) in assay [3]; 13.6 µM (inactive) in [4]; 32.3 µM (inactive) in assay [5]; 36.4 µM (inactive) in [6]. In addition, the GI50 is 30.5 µM (inactive) in assay [7]; 12.9 µM (inactive) in assay [8]; 5.9 µM (inactive) in [9]; 15.2 µM (inactive) in assay [10]; 11.9 µM (inactive) in [11]; 57.7 µM (inactive) in [12]. Further, the GI50 is 16.7 µM (inactive) in assay [13]; 42.4 µM (inactive) in assay [14]; 21.4 µM (inactive) in assay [15]; 30.6 µM (inactive) in [16]; 15.4 µM (inactive) in assay [17].
As for `CCOc1cc(CCNC)c2c(ccc3ccc(OC)c(O)c32)c1OC`, the GI50 in [18] is 17.9 µM (inactive); in [19] it was 15.7 µM (inactive); in assay [1], 11.5 µM (inactive); in assay [2], 10.4 µM (inactive); in [3], 19 µM (inactive); in assay [4], 8.47 µM (inactive). The GI50 was 13.9 µM (inactive) in assay [6]; 11.7 µM (inactive) in [7]; 4.44 µM (inactive) in [8]; 14.9 µM (inactive) in assay [9]; 11.9 µM (inactive) in assay [10]; 21.7 µM (inactive) in [11]. Moreover, the GI50 in [12] was 16.1 µM (inactive); in [13], 16.2 µM (inactive); in assay [14], 13.6 µM (inactive); in assay [15], 13.6 µM (inactive); in assay [16], 18 µM (inactive); in assay [20] it was 17 µM (inactive).
Consider `COc1ccc(-c2c(C#N)c(N)nc(Sc3ccccc3N)c2C#N)cc1`, for which the GI50 in assay [18] is 52.8 µM (inactive); in assay [19], 6.46 µM (inactive); in assay [1], 16.8 µM (inactive); in assay [2] it was 10.7 µM (inactive); in assay [3] it was > 100 µM (inactive); in [4], 14.6 µM (inactive). The GI50 was > 90.6 µM (inactive) in assay [5]; 10.8 µM (inactive) in [6]; > 48.4 µM (inactive) in assay [7]; 43.7 µM (inactive) in assay [8]; > 100 µM (inactive) in assay [9]; 44.9 µM (inactive) in assay [10]. For the same molecule, the GI50 is 2.82 µM (inactive) in assay [11]; 16.1 µM (inactive) in assay [12]; 10.2 µM (inactive) in assay [13]; 8.11 µM (inactive) in assay [14]; 13.1 µM (inactive) in assay [15]; 10.9 µM (inactive) in assay [16]. Further, the GI50 is 32.3 µM (inactive) in [20] and 12.1 µM (inactive) in assay [17].
`COC1C(N)C(OC2C(Oc3cccc4c(O)c5c(=O)oc6ccc(C)c7c(=O)oc(c34)c5c67)OC(C)C(O)C2(C)O)OC(C)C1O` (stereo not given): the GI50 in [18] was 0.0201 µM (active); in assay [19], < 0.0184 µM (active); in assay [1], < 0.0125 µM (active); in [2] it was < 0.01 µM (active); in [3] it was 0.0456 µM (active); in assay [4] it was < 0.01 µM (active). Besides, the GI50 in assay [5] is 0.0102 µM (active); in assay [6] it was < 0.0197 µM (active); in [7], 0.0269 µM (active); in [8], < 0.215 µM (active); in assay [9] it was < 0.0236 µM (active); in assay [10] it was 0.0313 µM (active). Besides, the GI50 is 0.0266 µM (active) in assay [11]; 0.0186 µM (active) in [12]; 0.0312 µM (active) in assay [13]; 0.0154 µM (active) in assay [14]; 0.0399 µM (active) in [15]; 0.0643 µM (active) in assay [16]. In addition, the GI50 in [20] and in assay [17] was < 0.0154 µM (active) each time.
As to `COc1cccc(N2N=C3c4ccccc4-n4c(nc5ccccc54)C3C2N)c1` (stereo not given), the GI50 in assay [1] was > 100 µM (inactive); in assay [2], > 100 µM (inactive); in assay [3], > 100 µM (inactive); in assay [4], 79.6 µM (inactive); in [5] it was > 100 µM (inactive); in [6] it was > 100 µM (inactive). For the same molecule, the GI50 is > 100 µM (inactive) in assay [7]; 86.5 µM (inactive) in assay [8]; > 100 µM (inactive) in [10]; > 100 µM (inactive) in assay [11]; > 100 µM (inactive) in assay [12]; > 100 µM (inactive) in [13]. Further, the GI50 was > 100 µM (inactive) in assay [14], > 100 µM (inactive) in assay [15], 92.9 µM (inactive) in assay [16] and > 100 µM (inactive) in assay [17].
Take `COc1ccc(C2Oc3c(cccc3-c3c(-c4ccc(O)cc4)oc4cc(O)cc(O)c4c3=O)C(=O)C2O)cc1O` (stereo not given): the GI50 in assay [18], in assay [2], in [3], in assay [4], in assay [5] and in [6] was > 100 µM (inactive) in each case. For the same molecule, the GI50 in assay [7], in [8], in assay [9], in assay [11], in [12] and in assay [13] was > 100 µM (inactive) in each case. For the same molecule, the GI50 in assay [14], in assay [15], in assay [16] and in assay [20] was > 100 µM (inactive) each time.
In the case of `CSc1nc(SC)c2c(C)cn(C3OC(C)C(O)C(O)C3O)c2n1` (stereo not given), the GI50 was 66.7 µM (inactive) in assay [18]; > 100 µM (inactive) in assay [19]; 31.8 µM (inactive) in [1]; > 100 µM (inactive) in [2]; 86.7 µM (inactive) in assay [3]; 58.9 µM (inactive) in assay [4]. Also, the GI50 in assay [5] is > 100 µM (inactive); in [6], 70 µM (inactive); in assay [7], 94 µM (inactive); in [8] it was 33.3 µM (inactive); in [9], 45.7 µM (inactive); in [10], 56.8 µM (inactive). Further, the GI50 is 34.1 µM (inactive) in assay [11]; 57 µM (inactive) in assay [12]; 57 µM (inactive) in assay [13]; 74.6 µM (inactive) in assay [14]; 58.2 µM (inactive) in assay [15]; 62.2 µM (inactive) in assay [16]. In addition, the GI50 in [17] is 21 µM (inactive).
As to `CCn1c(-c2ccccc2)nc2c1C(=O)c1ccccc1C2=O`, the GI50 in assay [18] was 24.4 µM (inactive); in assay [19] it was 15.6 µM (inactive); in assay [2], 21.7 µM (inactive); in assay [3] it was 14.1 µM (inactive); in assay [4] it was 25.5 µM (inactive); in assay [5], 32.1 µM (inactive). The GI50 in assay [6] was 19.3 µM (inactive); in [7], 21.8 µM (inactive); in assay [8] it was 22.3 µM (inactive); in [9], 18.4 µM (inactive); in [10], 22.7 µM (inactive); in assay [11] it was 2.22 µM (inactive). Also, the GI50 in assay [12] is 32.8 µM (inactive); in assay [13], 30.1 µM (inactive); in assay [14], 14 µM (inactive); in [16], 36.2 µM (inactive); in [20], 25.9 µM (inactive); in assay [17] it was 32.4 µM (inactive).
As for `COc1ccc2c(c1)/C(=C\c1c(Cl)nc3sc(C)cn13)C(=O)N2`, the GI50 is 8.22 µM (inactive) in assay [19]; 4.22 µM (inactive) in assay [1]; 3.1 µM (inactive) in assay [2]; 1.6 µM (inactive) in assay [3]; 3.52 µM (inactive) in assay [4]; 0.826 µM (active) in assay [5]. Besides, the GI50 in assay [6] is 3.72 µM (inactive); in assay [7], 4.12 µM (inactive); in assay [8], 0.7 µM (active); in [9], 1.19 µM (inactive); in [10] it was 1.71 µM (inactive); in [11] it was 3.99 µM (inactive). The GI50 in assay [12] is 3.84 µM (inactive); in assay [13] it was 1.74 µM (inactive); in assay [14] it was 4.06 µM (inactive); in assay [15] it was 6.95 µM (inactive); in [16] it was 6.37 µM (inactive); in assay [20] it was 0.521 µM (active). Besides, in assay [17], the GI50 was 2.01 µM (inactive).
As for `COc1ccc(-c2oc3cc(OC)c(OC)c(O)c3c(=O)c2OC)cc1`, the GI50 in assay [18] was 48.9 µM (inactive); in assay [19] it was 22.7 µM (inactive); in assay [1], 53.5 µM (inactive); in assay [2] it was > 100 µM (inactive); in assay [3], > 100 µM (inactive); in assay [4], 41.6 µM (inactive). Moreover, the GI50 is > 100 µM (inactive) in assay [5]; 18.7 µM (inactive) in assay [6]; > 100 µM (inactive) in [8]; > 100 µM (inactive) in [9]; > 100 µM (inactive) in assay [10]; 28.4 µM (inactive) in [11]. Moreover, the GI50 in [12] was 28.4 µM (inactive); in assay [13] it was 20.8 µM (inactive); in [14], 43.2 µM (inactive); in assay [15], 33.3 µM (inactive); in assay [16], 34.1 µM (inactive); in [20], > 100 µM (inactive). In assay [17], the GI50 was 30.9 µM (inactive).
Regarding `O=C1CC[C@@H](C(=O)N2CSC[C@H]2C(=O)O)N1` [PIDOTIMOD] ([pGlu]-[Thz]-OH), the GI50 in assay [18], in assay [19], in assay [1], in [4], in [5] and in assay [6] was > 100 µM (inactive) in each case. In addition, the GI50 in assay [7], in [8], in assay [9], in [10], in [11] and in [12] was > 100 µM (inactive) throughout. For the same molecule, the GI50 in [13], in assay [14], in assay [15], in assay [16], in [20] and in assay [17] was > 100 µM (inactive) in each case.

The values are drawn from ChEMBL document CHEMBL1201862, “PubChem BioAssay data set” (2004).
